31 compounds from US20190071416A1, “COMPOUNDS FOR TREATMENT OF CANCER AND EPIGENETICS” (Agency For Science, Technology and Research, priority 2015, published 2019) can be followed below.

Structures are written as SMILES.

The assay concerns the target T1, SMYD3 (Homo sapiens, UniProt Q9H7B4).
T1 sequence (Q9H7B4 1-428): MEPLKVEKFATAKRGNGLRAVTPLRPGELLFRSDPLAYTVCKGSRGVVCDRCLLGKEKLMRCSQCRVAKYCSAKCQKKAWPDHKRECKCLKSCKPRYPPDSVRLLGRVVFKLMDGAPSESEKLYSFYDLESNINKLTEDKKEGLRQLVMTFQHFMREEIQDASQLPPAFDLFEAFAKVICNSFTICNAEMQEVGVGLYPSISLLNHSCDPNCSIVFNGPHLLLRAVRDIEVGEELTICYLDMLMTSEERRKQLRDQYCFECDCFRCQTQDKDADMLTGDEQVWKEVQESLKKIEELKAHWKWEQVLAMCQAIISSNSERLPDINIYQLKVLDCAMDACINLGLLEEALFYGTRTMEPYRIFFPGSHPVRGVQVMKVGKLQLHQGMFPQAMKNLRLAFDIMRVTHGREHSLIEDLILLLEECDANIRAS
As to the kind of experiment: SMYD3 biochemical assay (MTase-Glo, MAP3K2 peptide substrate). The note with it: Table 3; MTase assay, MAP3K2 peptide substrate; read-out: IC50. The essentials: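 Luminescent readout of SAH production (coupled SAH→ATP conversion, MTase-Glo) after SMYD3 reacted 30 min at room temperature with 1.0 µM SAM and 10 µM MAP3K2 peptide, both final. Non-linear regression gave IC50 values.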
`CCCOC(=O)N1CCN(C(=O)c2ccc3c(Cl)cc(-c4ccc(C(=O)OC)nc4)nc3c2)C[C@H]1C` [B178, Propyl (R)-4-(4-chloro-2-(6-(methoxycarbonyl)pyridin-3-yl)quinoline-7-carbonyl)-2-methylpiperazine-1-carboxylate]: the IC50 (usually the concentration that inhibits the measured activity by half) was 930 nM.
On to `CCCOC(=O)N1CCN(C(=O)c2ccc3c(Cl)cc(-c4cnn(C)c4)nc3c2)CC1` [B179, Propyl 4-(4-chloro-2-(1-methyl-1H-pyrazol-4-yl)quinoline-7-carbonyl)piperazine-1-carboxylate], for which the IC50 was found to be 250 nM.
The figure for `CCCOC(=O)N1CCN(C(=O)c2ccc3c(Cl)cc(-c4ccc(F)c(N)c4)nc3c2)CC1` [B180, Propyl 4-(2-(3-amino-4-fluorophenyl)-4-chloroquinoline-7-carbonyl)piperazine-1-carboxylate] is 250 nM; for `CCCOC(=O)N1CCN(C(=O)c2ccc3c(Cl)cc(-c4ccc(O)c(OCC)c4)nc3c2)CC1` [B181, Propyl 4-(4-chloro-2-(3-ethoxy-4-hydroxyphenyl)quinoline-7-carbonyl)piperazine-1-carboxylate] it is 290 nM; for `CCCOC(=O)N1CCN(C(=O)c2ccc3c(Cl)cc(-c4ccc(O)c(CO)c4)nc3c2)C[C@@H]1C` [B182, Propyl (S)-4-(4-chloro-2-(4-hydroxy-3-(hydroxymethyl)phenyl)quinoline-7-carbonyl)-2-methylpiperazine-1-carboxylate] it is 140 nM.
Consider `CCCOC(=O)N1CCN(C(=O)c2ccc3c(Cl)cc(-c4ccc5c(c4)ncn5C)nc3c2)CC1` [B183, Propyl 4-(4-chloro-2-(1-methyl-1H-benzo[d]imidazol-5-yl)quinoline-7-carbonyl)piperazine-1-carboxylate], for which the IC50 stood at 120 nM.
The figure for `CCCOC(=O)N1CCN(C(=O)c2ccc3c(Cl)cc(-c4ccc5[nH]c(O)nc5c4)nc3c2)CC1` [B184, Propyl 4-(4-chloro-2-(2-hydroxy-1H-benzo[d]imidazol-5-yl)quinoline-7-carbonyl)piperazine-1-carboxylate] is 100 nM; for `CCCOC(=O)N1CCN(C(=O)c2ccc3c(Cl)cc(-c4cnc(N)nc4)nc3c2)CC1` [B185, Propyl 4-(2-(2-aminopyrimidin-5-yl)-4-chloroquinoline-7-carbonyl)piperazine-1-carboxylate] it is 870 nM; for `CCCOC(=O)N1CCN(C(=O)c2ccc3c(Cl)cc(-c4cc(C)c5[nH]ncc5c4)nc3c2)CC1` [B186, Propyl 4-(4-chloro-2-(7-methyl-1H-indazol-5-yl)quinoline-7-carbonyl)piperazine-1-carboxylate] it is 140 nM.
The figure for `CCCOC(=O)N1CCN(C(=O)c2ccc3c(Cl)cc(-c4cccc5[nH]cnc45)nc3c2)CC1` [B187, Propyl 4-(2-(1H-benzo[d]imidazol-4-yl)-4-chloroquinoline-7-carbonyl)piperazine-1-carboxylate] is 140 nM.
The value for `CCCOC(=O)N1CCN(C(=O)c2ccc3c(Cl)cc(-c4cnc5cccnc5c4)nc3c2)C[C@@H]1C` [B188, Propyl (S)-4-(4-chloro-2-(1,5-naphthyridin-3-yl)quinoline-7-carbonyl)-2-methylpiperazine-1-carboxylate] was 890 nM; that for `CCCOC(=O)N1CCN(C(=O)c2ccc3c(Cl)cc(-c4ccc(C(=O)NC)cc4)nc3c2)C[C@@H]1C` [B189, Propyl (S)-4-(4-chloro-2-(4-(methylcarbamoyl)phenyl)quinoline-7-carbonyl)-2-methylpiperazine-1-carboxylate] was 69 nM.
As for `CCCOC(=O)N1CCN(C(=O)c2ccc3c(Cl)cc(-c4ccc(C(=O)NC)cc4)nc3c2)[C@@H](C)C1` [B190, Propyl (S)-4-(4-chloro-2-(4-(methylcarbamoyl)phenyl)quinoline-7-carbonyl)-3-methylpiperazine-1-carboxylate], the IC50 is 130 nM.
The value for `CCCOC(=O)N1CCN(C(=O)c2ccc3c(Cl)cc(-c4ccc(O)c(F)c4)nc3c2)CC1` [B191, Propyl 4-(4-chloro-2-(3-fluoro-4-hydroxyphenyl)quinoline-7-carbonyl)piperazine-1-carboxylate] was 140 nM; that for `CCCOC(=O)N1CCN(C(=O)c2ccc3c(Cl)cc(-c4ccc(O)c(F)c4)nc3c2)C[C@@H]1C` [B192, Propyl (S)-4-(4-chloro-2-(3-fluoro-4-hydroxyphenyl)quinoline-7-carbonyl)-2-methylpiperazine-1-carboxylate] was 75 nM.
The value for `CCCOC(=O)N1CCN(C(=O)c2ccc3c(Cl)cc(-c4ccn(C)c4)nc3c2)C[C@@H]1C` [B193, Propyl (S)-4-(4-chloro-2-(1-methyl-1H-pyrrol-3-yl)quinoline-7-carbonyl)-2-methylpiperazine-1-carboxylate] was 60 nM.
The value for `CCCOC(=O)N1CCN(C(=O)c2ccc3c(Cl)cc(-c4ccn(C)c4)nc3c2)[C@@H](C)C1` [B194, Propyl (S)-4-(4-chloro-2-(1-methyl-1H-pyrrol-3-yl)quinoline-7-carbonyl)-3-methylpiperazine-1-carboxylate] was 130 nM; that for `CCCOC(=O)N1CCN(C(=O)c2ccc3c(Cl)cc(-c4ccc5cnn(C)c5c4)nc3c2)CC1` [B195, Propyl 4-(4-chloro-2-(1-methyl-1H-indazol-6-yl)quinoline-7-carbonyl)piperazine-1-carboxylate] was 250 nM.
On to `CCCOC(=O)N1CCN(C(=O)c2ccc3c(Cl)cc(-c4ccc5cn(C)nc5c4)nc3c2)CC1` [B196, Propyl 4-(4-chloro-2-(2-methyl-2H-indazol-6-yl)quinoline-7-carbonyl)piperazine-1-carboxylate], for which the IC50 was determined as 56 nM.
The figure for `CCCOC(=O)N1CCN(C(=O)c2ccc3c(Cl)cc(-c4ccc5[nH]nc(C)c5c4)nc3c2)C[C@H]1C` [B197, Propyl (R)-4-(4-chloro-2-(3-methyl-1H-indazol-5-yl)quinoline-7-carbonyl)-2-methylpiperazine-1-carboxylate] is 100 nM; for `CCCOC(=O)N1CCN(C(=O)c2ccc3c(Cl)cc(-c4ccc5[nH]nc(C)c5c4)nc3c2)[C@@H](C)C1` [B198, Propyl (S)-4-(4-chloro-2-(3-methyl-1H-indazol-5-yl)quinoline-7-carbonyl)-3-methylpiperazine-1-carboxylate] it is 200 nM.
As to `CCCOC(=O)N1CCN(C(=O)c2ccc3c(Cl)cc(-c4cnc5[nH]nc(C)c5c4)nc3c2)C[C@H]1C` [B199, Propyl (R)-4-(4-chloro-2-(3-methyl-1H-pyrazolo[3,4-b]pyridin-5-yl)quinoline-7-carbonyl)-2-methylpiperazine-1-carboxylate], the IC50 was 350 nM.
On to `CCCOC(=O)N1CCN(C(=O)c2ccc3c(Cl)cc(-c4cnc5[nH]nc(C)c5c4)nc3c2)[C@@H](C)C1` [B200, Propyl (S)-4-(4-chloro-2-(3-methyl-1H-pyrazolo[3,4-b]pyridin-5-yl)quinoline-7-carbonyl)-3-methylpiperazine-1-carboxylate], for which the IC50 was found to be 1030 nM.
As to `CCCOC(=O)N1CCN(C(=O)c2ccc3c(Cl)cc(-c4cc(F)c(O)c(F)c4)nc3c2)CC1` [B201, Propyl 4-(4-chloro-2-(3,5-difluoro-4-hydroxyphenyl)quinoline-7-carbonyl)piperazine-1-carboxylate], the IC50 is 180 nM.
The figure for `CCCOC(=O)N1CCN(C(=O)c2ccc3c(Cl)cc(-c4ccc(O)c(C)c4)nc3c2)CC1` [B202, Propyl 4-(4-chloro-2-(4-hydroxy-3-methylphenyl)quinoline-7-carbonyl)piperazine-1-carboxylate] is 120 nM; for `CCCOC(=O)N1CCN(C(=O)c2ccc3c(Cl)cc(-c4ccc5occc5c4)nc3c2)CC1` [B203, Propyl 4-(2-(benzofuran-5-yl)-4-chloroquinoline-7-carbonyl)piperazine-1-carboxylate] it is 460 nM; for `CCCOC(=O)N1CCN(C(=O)c2ccc3c(Cl)cc(-c4ccc(C(=O)NC)c(F)c4)nc3c2)CC1` [B204, Propyl 4-(4-chloro-2-(3-fluoro-4-(methylcarbamoyl)phenyl)quinoline-7-carbonyl)piperazine-1-carboxylate] it is 1010 nM.
The value for `CCCOC(=O)N1CCN(C(=O)c2ccc3c(Cl)cc(-c4ccc(C(=O)NC5CC5)c(F)c4)nc3c2)CC1` [B205, Propyl 4-(4-chloro-2-(4-(cyclopropylcarbamoyl)-3-fluorophenyl)quinoline-7-carbonyl)piperazine-1-carboxylate] was 890 nM.
Take `CCCOC(=O)N1CCN(C(=O)c2ccc3c(Cl)cc(-c4ccc(C(=O)NCC)cc4)nc3c2)CC1` [B206, Propyl 4-(4-chloro-2-(4-(ethylcarbamoyl)phenyl)quinoline-7-carbonyl)piperazine-1-carboxylate]: the IC50 is 600 nM.
Consider `CCCOC(=O)N1CCN(C(=O)c2ccc3c(Cl)cc(-c4ccc5ncn(C)c5c4)nc3c2)CC1` [B207, Propyl 4-(4-chloro-2-(1-methyl-1H-benzo[d]imidazol-6-yl)quinoline-7-carbonyl)piperazine-1-carboxylate], for which the IC50 is 60 nM.
The value for `CCCOC(=O)N1CCN(C(=O)c2ccc3c(Cl)cc(-c4ccc5nc(C)sc5c4)nc3c2)CC1` [B208, Propyl 4-(4-chloro-2-(2-methylbenzo[d]thiazol-6-yl)quinoline-7-carbonyl)piperazine-1-carboxylate] was 380 nM.
